Assay results taken from US20030199692A1, “Propanoic acid derivatives that inhibit the binding of integrins to their receptors” (priority 1999, published 2003).

Assays:
α4β1 integrin = biological target: T1, α4β1 integrin (Homo sapiens, UniProt P05556+P13612); test: Inhibition of adhesion of calcein AM-labeled Ramos cells to CS1 (fibronectin) peptide-conjugated ovalbumin; format: cell-based; conditions: Ramos cell adhesion to CS1-conjugated ovalbumin, 30 minutes at 37° C.
T1 construct: endogenous in cells; host or cells: Ramos cells
T1 sequence (P13612 34-1032): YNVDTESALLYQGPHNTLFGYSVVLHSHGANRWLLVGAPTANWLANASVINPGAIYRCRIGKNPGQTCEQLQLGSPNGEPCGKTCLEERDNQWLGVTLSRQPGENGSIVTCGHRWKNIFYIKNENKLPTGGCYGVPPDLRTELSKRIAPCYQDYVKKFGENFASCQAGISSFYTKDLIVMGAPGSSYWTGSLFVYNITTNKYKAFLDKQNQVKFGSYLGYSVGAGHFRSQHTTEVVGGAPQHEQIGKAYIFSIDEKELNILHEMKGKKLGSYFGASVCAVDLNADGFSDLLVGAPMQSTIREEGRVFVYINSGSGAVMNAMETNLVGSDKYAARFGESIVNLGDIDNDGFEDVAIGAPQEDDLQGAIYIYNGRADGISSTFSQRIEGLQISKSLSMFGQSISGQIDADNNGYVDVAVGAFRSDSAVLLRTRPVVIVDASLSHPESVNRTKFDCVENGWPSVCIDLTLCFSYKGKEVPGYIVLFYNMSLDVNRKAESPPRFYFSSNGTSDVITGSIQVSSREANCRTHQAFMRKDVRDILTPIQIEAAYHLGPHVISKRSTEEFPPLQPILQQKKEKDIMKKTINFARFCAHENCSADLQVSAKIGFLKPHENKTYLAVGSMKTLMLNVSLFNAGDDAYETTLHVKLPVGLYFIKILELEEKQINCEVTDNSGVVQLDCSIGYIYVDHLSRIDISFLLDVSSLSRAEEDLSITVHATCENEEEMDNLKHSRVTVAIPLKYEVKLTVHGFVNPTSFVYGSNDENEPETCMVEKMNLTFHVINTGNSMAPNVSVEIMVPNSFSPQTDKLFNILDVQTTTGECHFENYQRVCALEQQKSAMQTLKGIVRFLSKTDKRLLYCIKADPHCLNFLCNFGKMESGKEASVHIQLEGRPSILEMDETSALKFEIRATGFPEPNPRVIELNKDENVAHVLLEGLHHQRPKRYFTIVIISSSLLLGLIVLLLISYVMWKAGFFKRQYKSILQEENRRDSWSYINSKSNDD
T1 sequence (P05556 21-798): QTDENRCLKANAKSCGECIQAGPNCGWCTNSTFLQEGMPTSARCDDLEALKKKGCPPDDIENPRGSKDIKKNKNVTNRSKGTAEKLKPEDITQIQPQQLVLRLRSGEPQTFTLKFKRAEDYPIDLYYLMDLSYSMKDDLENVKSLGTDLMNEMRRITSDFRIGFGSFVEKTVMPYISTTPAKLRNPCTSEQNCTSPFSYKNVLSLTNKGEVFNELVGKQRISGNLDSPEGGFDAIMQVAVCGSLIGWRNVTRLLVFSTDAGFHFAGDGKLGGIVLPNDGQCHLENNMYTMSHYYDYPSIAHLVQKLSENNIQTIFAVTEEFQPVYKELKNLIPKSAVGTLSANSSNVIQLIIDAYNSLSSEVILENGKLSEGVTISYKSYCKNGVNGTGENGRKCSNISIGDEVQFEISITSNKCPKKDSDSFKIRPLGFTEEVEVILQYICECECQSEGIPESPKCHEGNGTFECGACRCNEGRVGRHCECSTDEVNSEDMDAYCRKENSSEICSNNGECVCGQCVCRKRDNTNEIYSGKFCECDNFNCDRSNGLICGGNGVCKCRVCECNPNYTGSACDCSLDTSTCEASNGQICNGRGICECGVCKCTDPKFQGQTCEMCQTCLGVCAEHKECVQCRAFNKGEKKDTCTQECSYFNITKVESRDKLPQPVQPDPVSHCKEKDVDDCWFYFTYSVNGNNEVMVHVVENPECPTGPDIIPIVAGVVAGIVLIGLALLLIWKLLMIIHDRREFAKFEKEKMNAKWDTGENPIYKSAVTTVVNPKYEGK
Procedure, shortened: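 Calcein AM-labeled Ramos cells (2.5×10^5/well) added with or without compound to plates coated with CS1 peptide-ovalbumin conjugate in TBS containing 1 mM each MgCl2, CaCl2, MnCl2; 30 min at 37° C. Adherent cells lysed and quantified fluorometrically after washes; IC50 as dose for 50% inhibition, or percent inhibition at 100 μM.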

| Compound | IC50 (α4β1 integrin; Table 4) | also measured |
| --- | --- | --- |
| CCCCC(C(=O)N[C@@H](CC(=O)O)c1ccc2c(c1)OCO2)N1C(=O)N(Cc2ccccc2)C(=O)C1(C)C (stereo partly drawn) [(3S)-3-(1,3-benzodioxol-5-yl)-3-({2-[5,5-dimethyl-2,4-dioxo-3-(phenylmethyl)tetrahydro-1H-imidazol-1-yl]hexanoyl}amino)propanoic acid] | – | IC50 (α4β1 integrin; Table 3): 20000 nM; melting point: 53 to 55 °C |
| CCCCC(C(=O)N[C@@H](CC(=O)O)c1ccc(OC(F)(F)F)cc1)n1cc(C)cc(Cc2ccccc2)c1=O (stereo partly drawn) [(3S)-3-{[2-(3-benzyl-5-methyl-2-oxopyridin-1(2H)-yl)hexanoyl]amino}-3-[4-(trifluoromethoxy)phenyl]propanoic acid] | 27 nM | – |
| CCCCC(C(=O)N[C@@H](CC(=O)O)c1ccccc1)n1cc(C)cc(Cc2ccccc2)c1=O (stereo partly drawn) [(3S)-3-{[2-(3-benzyl-5-methyl-2-oxopyridin-1(2H)-yl)hexanoyl]amino}-3-phenylpropanoic acid] | 10 nM | – |
| CCCC[C@@H](C(=O)N[C@@H](CC(=O)O)c1ccc(-c2c(OC)cccc2OC)cc1)n1cc(C)cc(Cc2ccccc2)c1=O [(3S)-3-{[(2S)-2-(3-benzyl-5-methyl-2-oxopyridin-1(2H)-yl)hexanoyl]amino}-3-(2′,6′-dimethoxy-1,1′-biphenyl-4-yl)propanoic acid] | 200 nM | – |
| CCCC[C@@H](C(=O)N[C@@H](CC(=O)O)c1cc(OC)cc(OC)c1)n1cc(C)cc(Cc2ccccc2)c1=O [(3S)-3-{[(2S)-2-(3-benzyl-5-methyl-2-oxopyridin-1(2H)-yl)hexanoyl]amino}-3-(3,5-dimethoxyphenyl)propanoic acid] | 10 nM | – |
| CCCC[C@@H](C(=O)N[C@@H](CC(=O)O)c1ccc(OC)c(F)c1)n1cc(C)cc(Cc2ccccc2)c1=O [(3S)-3-{[(2S)-2-(3-benzyl-5-methyl-2-oxopyridin-1(2H)-yl)hexanoyl]amino}-3-(3-fluoro-4-methoxyphenyl)propanoic acid] | 17 nM | – |
| CCCCC(C(=O)N[C@@H](CC(=O)O)c1cc(OC)c(OC)c(OC)c1)n1cc(C)cc(Cc2ccccc2)c1=O (stereo partly drawn) [(3S)-3-{]2-(3-benzyl-5-methyl-2-oxopyridin-1(2H)-yl)hexanoyl]amino}-3-(3,4,5-trimethoxyphenyl)propanoic acid] | 33 nM | – |
| CCCC[C@@H](C(=O)N[C@@H](CC(=O)O)c1ccc2c(c1)OCO2)n1cc(C)cc(Cc2ccccc2)c1=O [Compound 10] | – | IC50 (α4β1 integrin; Table 1): 3 nM |
